# PMC5527305, “Prevention of Ophthalmia Neonatorum Caused by Neisseria gonorrhoeae Using a Fatty Acid-Based Formulation” (mBio, 2017)
# How the values were obtained:
# [1] = tested on: N. gonorrhoeae strain NCCP11945; experiment: Growth inhibition screen on GC solid media containing 1 mM candidate; assay type: cell-based, Neisseria gonorrhoeae; conditions: 1 mM candidate in GC agar media; Yes = strain NCCP11945 did not grow
# Method: (§1) To find potential candidates, 37 organic acids, esters, and salts were tested in a two-tiered screening process. These candidates were chosen based on the carbon chain lengths of the fatty acids, the presence or absence of saturation, and modifications to represent a diverse selection of organic acid candidates. The first screen aimed to determine the ability of each compound to inhibit the growth of N. gonorrhoeae strain NCCP11945 at 1 mM in GC solid media (Table 1). This strain was chosen due to its relatively recent isolation, its antibiotic resistance profile, and the availability of a complete genome sequence. Those candidates able to inhibit the growth of N. gonorrhoeae strain NCCP11945 were investigated in a second assay. The second assay tested the ability of each compound to cause at least a 4-log reduction in viable bacteria at 1 mM with a 2-min exposure time (Table 1).
# (§2) The well-characterized N. gonorrhoeae NCCP11945 strain ([36]) was used in the screening stage. Eight isolates obtained from Public Health England, representing circulating isolates from various European locations, were used in the log reduction assays. All isolates were cultured for 24 h prior to testing by plating on GC solid medium (Oxoid Limited, Hampshire, United Kingdom) with Kellogg supplements and incubation at 37°C and 5% CO2 ([37]).
# [2] = tested on: nine gonococcal isolates (strain NCCP11945 and eight isolates from Public Health England); experiment: Minimum bactericidal concentration by log reduction against nine gonococcal isolates; assay type: cell-based, Neisseria gonorrhoeae
# Excerpt: The seven candidates were further tested against nine gonococcal isolates, including strain NCCP11945 and eight isolates from Public Health England, to find their minimal bactericidal concentration (MBC). This was defined as the lowest concentration tested to give an average 4-log10 reduction in bacterial count after a 2-min exposure. […] Any candidate that killed all gonococcal cells in the cell suspension was given a log reduction score of six.
# as §2
# (§3) Log reductions were done as described by Bergsson and coworkers ([18]). Briefly, cells were suspended in GC broth (18 g/liter GC base [Oxoid, Limited] with added defined supplements) to an optical density at 520 nm of 0.3, which is approximately equivalent to 10^7 to 10^8 cells per ml ([38]). […] The contents of the tubes were then mixed at room temperature for 2 min and immediately diluted in a 10-fold dilution series to 10^−4. The dilutions were plated by spreading 10 µl on a quarter of a plate; a 100-µl neat solution was also plated. Plates were then incubated at 37°C for 48 h, with all samples plated in duplicate. […] Additional testing at lower concentrations was also done on the eight clinical isolates of European origin.
# [3] = tested on: N. gonorrhoeae on human corneal epithelial cells; experiment: LIVE/DEAD staining of gonococcus-infected human corneal epithelial cells; assay type: cell-based, Neisseria gonorrhoeae; conditions: 1 mM
# Method: The LIVE/DEAD BacLight bacterial viability kit for microscopy (Life Technologies, Inc.) was used according to manufacturer’s instructions. After the course of infection, the culture wells were washed five times with sterile 0.85% NaCl to remove nonadhered bacterial cells. Stain was added to each well for 15 min at room temperature before washing in 0.85% saline solution was performed. Glass coverslips were mounted in BacLight mounting oil and visualized on a Nikon Eclipse i80 fluorescence microscope (Nikon United Kingdom) as detailed above.
# bovine cornea = experiment: Bovine corneal opacity and permeability (BCOP) test
# Method: Bovine eyes were collected from a local slaughter house (ABP, Guildford, Surrey, United Kingdom) and were transported in cold saline solution for testing at the laboratory. Each eye was first visually examined for signs of damage before use. The test was conducted as detailed by Abdelkader and coworkers ([21]). The exposure time of the test substances was 30 s. The selected bactericidal compounds were tested at 1 mM in saline solution, with a corresponding vehicle control (1% ethanol–saline solution) also performed. […] The test area of the cornea was then washed with 10 ml saline solution. Corneal damage to the test area was assessed by fluorescein staining and examination under a cobalt blue filter. Pathological scoring based on opacity, epithelial integrity, and epithelial detachment was done in accordance with previous publications ([19]). Each of the seven lead candidates was tested in triplicate, and each test was performed on a separate day using a different batch of eyeballs. Corneal histology was done as outlined by Abdelkader and coworkers ([21]) by evaluating the damage to the epithelial layer and stroma of the cornea after hematoxylin and eosin staining.
# N. gonorrhoeae = tested on: N. gonorrhoeae; set-up: method as in PMID 10543766; conditions: cited from earlier work
# [4] = tested on: N. gonorrhoeae strain NCCP11945; experiment: Log reduction assay in GC broth, 2-min exposure; assay type: cell-based, Neisseria gonorrhoeae
# Method: as §1, §3
# bovine RBCs = experiment: Red blood cell (RBC) lysis assay; assay type: cell-based
# Method: Whole bovine blood was obtained from a local slaughter house (ABP), adding 90 ml blood to 10 ml 110 mM trisodium citrate anticoagulant. RBCs were isolated the same day. The RBCs were washed by three repeats of centrifugation (1,500 × g for 10 min) and resuspension in phosphate-buffered saline (PBS) with 10 mM glucose (PBSG). Testing was done following the guidelines of the European Union Reference Laboratory for alternatives to animal testing (EURL-ECVAM) ([22]). The organic acids were solubilized in dimethyl sulfoxide (DMSO) and diluted to a maximum DMSO concentration of 10%. In a 2-ml centrifuge tube, 750 µl of the sample was added to 250 µl RBCs. Controls used in the assay were a complete lysis control (deionized water) and a fragility control (PBSG–10% DMSO). Samples were shaken at room temperature for 1 h and then centrifuged at 14,000 × g for 2 min. An aliquot of 750 µl of the supernatant was taken and its absorbance at 451 nm measured.
# C. trachomatis = tested on: C. trachomatis; set-up: method as in PMID 9736551; conditions: cited from earlier work
compound,measurement,setting,value
CCCCCCCCCC(=O)OCC(O)CO (stereo not shown) [Monocaprin],Growth inhibition,[1],Yes
same,Killing of all gonococcal cells for all isolates,"[2]; 1 mM, 2 min",killed all gonococcal cells for all isolates
same,MBC,[2]; lowest concentration giving mean log reduction above 4 from a 2-min exposure,500 µM
same,LIVE/DEAD staining of bacteria on infected corneal cells,[3],only dead bacterial cells
same,Viable bacteria recovered from treated wells,[3],No viable bacteria were recovered
same,Mean cumulative BCOP score,"bovine cornea; 1 mM in saline solution, 30 s exposure, triplicate",lower than 0.5
same,Fluorescein staining of cornea,"bovine cornea; 1 mM, around rubber application ring",any sign of fluorescein staining
same,BCOP irritancy classification,"bovine cornea; candidates 1 mM in saline, controls 0.5 M NaOH, 100% acetone, 30 s exposure",nonirritants
same,Antigonococcal properties,N. gonorrhoeae,strong antigonococcal properties
same,Log reduction at 1 mM: at least a 4-log reduction in viable bacteria (Yes/No),[4],Yes
same,Log reduction at 1 mM (calculated log reduction in viable bacteria),[4]; maximum score 6 = all cells killed,> 6 log10
same,H50 concentration relative to MBC,bovine RBCs,greater than their MBCs
same,Activity against C. trachomatis,C. trachomatis,bactericidal
